We go through eleven molecules from ChEMBL document CHEMBL1139643, “Cell differentiation inducers derived from thalidomide” (2005).

Assay type in all cases: functional
Test [1] concerns HL-60. The test is described as follows: Percent cell proliferation of human leukemia cell line HL-60 at 1*E-5 M.
For test [2], the system named is HL-60. The test is described as follows: NBT positivity against human leukemia cell line HL-60 at 1*E-5 M.
The test system of test [3] is HL-60. Description: Percent cell proliferation of human leukemia cell line HL-60 at 3*E-6 M.
In test [4] the test system is HL-60. The test is described as follows: NBT positivity against human leukemia cell line HL-60 at 3*E-6 M.
In test [5] the test system is HL-60. Description: NBT positivity against human leukemia cell line HL-60 at 1*E-6 M.
The subject of test [6] is HL-60. Description: Percent cell proliferation of human leukemia cell line HL-60 at 1*E-6 M.
The subject of test [7] is HL-60. Description: Percent cell proliferation of human leukemia cell line HL-60 at 5*E-6 M.
For test [8], the system named is HL-60. The test is described as follows: NBT positivity against human leukemia cell line HL-60 at 5*E-6 M.
In test [9] the test system is HL-60. The test is described as follows: Percent cell proliferation of human leukemia cell line HL-60 at 1*E-8 M.
The test system of test [10] is HL-60. The test is described as follows: NBT positivity against human leukemia cell line HL-60 at 1*E-8 M.
The test system of test [11] is HL-60. The test is described as follows: NBT positivity against human leukemia cell line HL-60 at 2*E-9 M.
In test [12] the test system is HL-60. Description: Percent cell proliferation of human leukemia cell line HL-60 at 2*E-9 M.

SMILES strings stand for the structures.

`CC1(N2C(=O)c3ccc(N)cc3C2=O)CCC(=O)NC1=O` (stereo not drawn): the Cell proliferation in test [1] amounted to 103%. The molecule also yielded an NBT positivity in test [2] of 1%.

As for `CC1(N2C(=O)c3cccc(N)c3C2=O)CCC(=O)NC1=O` (stereo not drawn), in [1], the Cell proliferation is on record as 92%. This molecule also yielded an NBT positivity in test [2] of 2%.

Regarding `CC(C)c1cccc(C(C)C)c1N1C(=O)c2ccc(O)cc2C1=O`, the Cell proliferation in test [3] was determined as 43%; in [6], 94%; in test [7] it was 10%. The NBT positivity is 8% in test [4], 3% in test [5] and 55% in [8].

`O=C1CCC(N2C(=O)c3ccccc3C2=O)C(=O)N1O` (stereo not drawn) displayed a Cell proliferation in test [1] of 100%. In test [2], this molecule had an NBT positivity of 1%.

In [1], `CC(C)c1cccc(C(C)C)c1N1C(=O)c2cccc(O)c2C1=O` came in with a Cell proliferation of 76%. In addition, in [2], the NBT positivity was determined as 3%.

`CC(C)c1cccc(C(C)C)c1N1C(=O)c2ccccc2C1=O` showed a Cell proliferation in [1] of 24%. The NBT positivity in test [2] was 9%.

For the molecule `CC(C)c1cccc(C(C)C)c1N1C(=O)c2cccc(N)c2C1=O`, the results for the Cell proliferation in test [3] and in test [1] were 73% and 25%, respectively. The NBT positivity in test [4] came out at 2%; in test [2], 16%.

Turning to `CC(C)c1cccc(C(C)C)c1N1C(=O)c2ccc(N)cc2C1=O`, in [1], the Cell proliferation is 53%. This molecule also displayed an NBT positivity in test [2] of 5%.

For `C=C1/C(=C\C=C2/CCC[C@]3(C)[C@@H]([C@H](C)CCCC(C)(C)O)CC[C@@H]23)C[C@@H](O)C[C@@H]1O` [CALCITRIOL], the Cell proliferation in test [9] came to 55%. In test [10], the NBT positivity was 39%.

For `O=C1CCC(N2C(=O)c3ccccc3C2=O)C(=O)N1` (stereo not drawn) [THALIDOMIDE], the Cell proliferation in test [1] was 101%. The same molecule displayed an NBT positivity in [2] of 1%.

In turn, `CC1=C(/C=C/C(C)=C/C=C/C(C)=C/C(=O)O)C(C)(C)CCC1` [TRETINOIN] gave an NBT positivity in test [11] of 52%. The molecule further had a Cell proliferation in [12] of 45%.
